≈ marks a conversion by molar mass, not a printed value. Read-outs that look alike come from different tables or passages of the source.
Legend:
[1] = Solubility of ACP in surfactant solutions; format: physicochemical; details: aqueous with cosolvent or surfactant or cyclodextrin
Method: Surfactants are primarily chosen on the basis of two criteria: firstly, the affinity of ACP towards the aqueous solution in the presence of the surfactant; and secondly, their capacity to form a stable emulsion when the solid lipid is combined with the aqueous phase. […] Further, on the basis of the solubility of ACP in various surfactants, separate placebo batches of SLNs were prepared using the selected surfactant(s), in order to assess their ability to stabilize the SLNs by evaluating the particle size via dynamic light scattering.

[2] = Solubility of ACP in molten solid lipids; format: physicochemical
Method: The solid lipids were screened on the basis of biocompatibility and visual evaluation of the solubility of ACP in the lipids. Solid lipids such as GB (Compritol® 888 ATO), glyceryl di-stearate (Precirol ATO 5), glyceryl trimyristate (Dynasan 114), stearic acid, SP (Kolliwax® S) and cetyl palmitate were selected for solubility studies, as they were reported to be biocompatible. In the solubility studies, approximately 200 mg of each lipid was weighed separately and melted by heating to 5–10 °C above its corresponding melting point using a magnetic stirrer equipped with a temperature controlling program. ACP was added in small amounts to each lipid (in molten state), incrementally, up to a maximum of 100 mg under continuous stirring (150–200 rpm) while maintaining the temperature (5–10 °C above its corresponding melting point) until some amount of ACP was present in undissolved / powder form in the lipid. Further, the lipids in which the drug has similar solubility, the lipid solutions (ACP dissolved in lipid) were maintained at the same temperature for 60 min to observed for any precipitation of the drug.

[3] = In vitro dissolution studies, USP type II apparatus; format: physicochemical; details: pH 6.8, 0.5% w/v SDS, within 2 h
Method: Dissolution studies were performed using USP type II dissolution apparatus under conditions simulating the fluids in different parts of the gastrointestinal tract (200 mL of pH 1.2 ± 0.02; 4.5 ± 0.02 buffer; and 900 mL of pH 6.8 ± 0.02 buffer) and blood/plasma (500 mL of pH 7.4 ± 0.02 buffer). […] The temperature was maintained at 37 ± 2 °C with a constant stirring rate of 75 rpm. At predetermined time intervals, 1000 μL samples were withdrawn from the dissolution media via a syringe and replenished with the same volume of fresh media (to retain the sink condition). The samples were immediately centrifuged at 15,373 × g in an ultracentrifuge. The supernatant was collected, diluted with mobile phase (methanol with 10 mM (pH 3.5) ammonium acetate buffer at a ratio of 52:48), and analysed via an HPLC–UV-based analytical method (mentioned in Sect. 3.2). The dissolution data obtained were contoured into different mathematical models (zero order; first order; and Higuchi square root kinetics) to determine the kinetics of drug release. The best fit model was analysed on the basis of the regression coefficient.

[4] = Saturation solubility of ACP in buffers with 0.5% w/v SDS; format: physicochemical; details: buffer systems with 0.5% w/v SDS; pH 4.5; 6.8; and 7.4 in the presence of 0.5% w/v SDS
From the text: The inherent hydrophobicity of ACP results in a solubility profile that is dependent on pH. […] It is very important to maintain sink condition during the in vitro dissolution study of any drug product. To maintain sink condition in the in vitro dissolution studies of hydrophobic drugs, various strategies can be employed, including, addition of surfactant; maintaining large volumes of dissolution media; addition of co-solvents; and use of a different dissolution apparatus like a flow through cell etc.. Of all the above strategies, addition of surfactants (either ionic or non-ionic) is the most commonly employed strategy. SDS, an anionic surfactant, is used to improve the wettability and saturation solubility of hydrophobic drugs in aqueous media. Researchers have used SDS in the range of 0.2 to 20% w/v to maintain the sink condition in the in vitro dissolution studies of formulations containing hydrophobic molecules. Thus, in order to achieve a sink condition, 0.5% w/v SDS was added in buffer systems having a pH of 4.5 and higher. […] Based on the above criteria, we have determined the minimum volume of pH 4.5, pH 6.8 and pH 7.4 (containing 0.5% w/v SDS) required to dissolve the entire drug dose administered in the formulation to be at least 130 mL.

[5] = cited from earlier work
[6] = cited from earlier work; remark: listed apart in the source
[7] = set-up: method as in doi:10.1002/sscp.202400110; details: Wistar rats; cited from earlier work

solubility ([1]; aqueous surfactant solution (Gelucire 44/14), Gelucire 44/14 0.15 % w/v, read-out: ACP solubility): 1.36 µg/mL (≈ 2.92 µM) | solubility ([1]; aqueous surfactant solution (Gelucire 44/14), Gelucire 44/14 2 % w/v, read-out: ACP solubility): 2.27 µg/mL (≈ 4.88 µM) | solubility ([1]; aqueous surfactant solution (Gelucire 48/16), Gelucire 48/16 0.15 % w/v, read-out: ACP solubility): 1.18 µg/mL (≈ 2.54 µM) | solubility ([1]; aqueous surfactant solution (Gelucire 48/16), Gelucire 48/16 2 % w/v, read-out: ACP solubility): 2.96 µg/mL (≈ 6.36 µM) | solubility ([1]; aqueous surfactant solution (PVP K30), Polyvinyl Pyrrolidone (PVP)- K30 0.15 % w/v, read-out: ACP solubility): 0.748 µg/mL (≈ 1.61 µM) | solubility ([1]; aqueous surfactant solution (PVP K30), Polyvinyl Pyrrolidone (PVP)- K30 2 % w/v, read-out: ACP solubility): 2.27 µg/mL (≈ 4.88 µM) | solubility ([1]; aqueous surfactant solution (Tween 80), 1% w/v solution of T80, read-out: solubility of ACP): < 0.1 µg/mL | solubility ([1]; aqueous surfactant solution (Tween 80), Tween 80 (T80) 0.15 % w/v, read-out: ACP solubility): 0.0523 µg/mL (≈ 0.112 µM) | solubility ([1]; aqueous surfactant solution (Tween 80), Tween 80 (T80) 2 % w/v, read-out: ACP solubility): 0.194 µg/mL (≈ 0.417 µM) | solubility ([1]; aqueous surfactant solution (poloxamer 188), 1% w/v solution of P188, read-out: solubility of ACP): < 0.1 µg/mL | solubility ([1]; aqueous surfactant solution (poloxamer 188), Poloxamer 188 (P188) 0.15 % w/v, read-out: ACP solubility): 0.0075 µg/mL (≈ 0.0161 µM) | solubility ([1]; aqueous surfactant solution (poloxamer 188), Poloxamer 188 (P188) 2 % w/v, read-out: ACP solubility): 0.0202 µg/mL (≈ 0.0434 µM) | solubility ([1]; aqueous surfactant solution (poloxamer 407), Poloxamer 407 (P407) 0.15 % w/v, read-out: ACP solubility): 0.209 µg/mL (≈ 0.45 µM) | solubility ([1]; aqueous surfactant solution (poloxamer 407), Poloxamer 407 (P407) 2 % w/v, read-out: ACP solubility): 1.74 µg/mL (≈ 3.74 µM) | solubility ([1]; aqueous surfactant solution (polyvinyl alcohol), Polyvinyl Alcohol (PVA) 0.15 % w/v, read-out: ACP solubility): 0.0137 µg/mL (≈ 0.0294 µM) | solubility ([1]; aqueous surfactant solution (polyvinyl alcohol), Polyvinyl Alcohol (PVA) 2 % w/v, read-out: ACP solubility): 0.109 µg/mL (≈ 0.234 µM) | solubility of ACP in lipid ([2]; in 200 mg of GB (glyceryl di-behenate)): ~ 40 mg | solubility of ACP in lipid ([2]; in 200 mg of SP (stearyl palmitate)): > 80 mg | ACP dissolved [3]: more than 80% | solubility [4]: ≥ 770 µg/mL
SMILES: CC#CC(=O)N1CCC[C@H]1c1nc(-c2ccc(C(=O)Nc3ccccn3)cc2)c2c(N)nccn12 [ACP, Acalabrutinib]
solubility of ACP ([5]; 0.01 N HCl (pH = 2)): 3730 µg/mL | solubility of ACP ([5]; 0.1 N HCl (pH = 1)): 29200 µg/mL | solubility of ACP ([5]; acetate or citrate buffer (pH = 4.5)): 159 µg/mL | maximum basic pKa [5]: 5.77 | solubility above pH 6 [5]: practically insoluble | excreted in faeces [6]: 84% | excreted in urine [6]: 12% | unchanged ACP, share of the total amount eliminated [6]: less than 2% | absolute oral bioavailability [7]: 22.83% ± 5.015%
